Results on four molecules are retold here after US20090232786A1, “HERBAL COMPOSITION FOR CANCER TREATMENT” (priority 2001, published 2009).

One experiment deals with serum PSA. Briefly: Patient case studies: serum PSA. In kind it is in vivo, human. Conditions: Example 11; Casodex 50 mg once daily for three months; PSA before 41. The protocol:
Serum PSA was measured to be 300. This patient then started hormone therapy including an oral administration of 100 mg of Androcur (Cyproterone Acetate) 3 times per day, and a subcutaneous injection of 3.6 mg of Zolodex (Goserelin Acetate Implant) once per three months. The prostate has been monitored since with serum PSA levels, varying between “28-62”.
In May 2001, the PSA level was measured to be 41. At that time, the patient stopped taking Androcur and Zolodex, and started to take Casodex 50 mg once daily. The treatment with Casodex continued for three months and follow-up blood tests indicated a serum PSA of 5.7.
From August 2001, this patient started to combine Casodex with an oral administration of the herbal formula of the present invention. The intake dosage of the herbal formula was 2070 mg per day. This combination treatment continued for two months.
From October 2001, the dosage of this herb formula was increased to 2760 mg per day. Following PSA level measurement was 2.3 in November 2001.
The patient in this case study was a person. […] The PSA was measured to be 21.
The prostate has been monitored approximately every 6 months. As the PSA reading was between “13-17” on occasions, when readings were high, antibiotics were prescribed for prostatitis. The PSA was measured to be 18.7 at August of 2001. […]

Experiment [1] deals with T1, estrogen (E2) binding site on MCF-7 cell lines (Homo sapiens, UniProt P03372).
T1 construct: endogenous in cells; host or cells: MCF-7 breast cancer cells
T1 sequence (P03372 1-595): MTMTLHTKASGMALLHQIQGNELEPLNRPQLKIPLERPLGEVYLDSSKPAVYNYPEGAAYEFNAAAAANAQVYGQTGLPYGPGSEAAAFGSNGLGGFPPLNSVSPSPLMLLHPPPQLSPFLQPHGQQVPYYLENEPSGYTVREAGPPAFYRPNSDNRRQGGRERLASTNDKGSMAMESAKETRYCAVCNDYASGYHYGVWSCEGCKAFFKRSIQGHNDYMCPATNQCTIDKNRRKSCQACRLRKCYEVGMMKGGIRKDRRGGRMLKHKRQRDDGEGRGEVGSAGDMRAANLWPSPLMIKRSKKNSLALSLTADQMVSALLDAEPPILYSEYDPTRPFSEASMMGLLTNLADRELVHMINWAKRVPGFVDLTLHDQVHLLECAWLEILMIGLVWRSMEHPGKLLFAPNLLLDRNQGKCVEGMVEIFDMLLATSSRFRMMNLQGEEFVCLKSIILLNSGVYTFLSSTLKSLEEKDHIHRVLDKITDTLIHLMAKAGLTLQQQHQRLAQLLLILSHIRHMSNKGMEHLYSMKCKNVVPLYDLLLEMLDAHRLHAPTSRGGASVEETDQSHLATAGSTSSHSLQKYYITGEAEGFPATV
The experiment is described as follows: Estrogen binding assay, 3H 17-β-estradiol displacement. Conditions: MCF-7, 197 μM, 1 nM 3H E2, 3 hours.
Procedure: The estrogen binding capacity of the herbal formula was investigated by assay. This assay was developed and run to determine if the herbal extracts that constitute the herbal formula have any binding activity towards the estrogen (E2) binding site on MCF-7 cell lines. The MCF-7 is a breast cancer cell line and was chosen because of the ability to express E2 binding sites.
^3H 17-β-estradiol (E2) was used at a final concentration in the wells of 1 nM in media. Samples were incubated for 3 hours after which the wells were aspirated and washed 3 times with warm PBS. Cell bound radioactivity was extracted with 300 μL EtOH which was added to each well and left to lyse for 20 min at room temperature. An aliquot was removed for counting, transferred to a counting plate and scintillant added and the plate counted in a Perkin Elmer MicroBeta.

A further experiment concerns PC-3 cell lines. The experiment is described as follows: PC3 cell cycle analysis by flow cytometry of propidium iodide stained cells. To be noted: PC-3, paclitaxol 10 ng/mL (FIG. 3). The class given is cell-based. On the procedure: Cell cycle analysis was carried out using tablets/capsules of the present invention. The formulation was tested as a single tablet/capsule concentration in triplicate and as a two capsule concentration also in triplicate.
Tablets/capsules were weighed, crushed and extracted with 10 ml of methanol. The extracts were sonicated for 40 mins and then spun down at 4000 rpm. The supernatant was removed and 100 μL of this extract was used in the cell cycle analysis. A further aliquot of this extract was subjected to HPLC-MS analysis as described in Example 3 below. Cells were split into 16×25 cm^2 flasks at a low concentration and allowed to grow to 65-70% confluence (at the time of addition the cells were in log phase). Flasks were incubated for 24 hours and control flasks of control media (no additions), an ethanol (100 μL EtOH), a control methanol (100 μL MeOH) and paclitaxol (10 μL of 0.01 mg/mL=10 ng/mL) were also run.
Flow cytometry was performed on the fixed cells after washing in PBS and stained using propidium iodide (2% PI in 0.1% Triton X-100 containing 2 mg/mL Rnase A). A Becton Dickson FACSCaliber was used to assay the cells.
Background: In flow cytometry, cells or beads pass a laser one at a time.

The subject of another experiment is LNCap cell lines. Briefly: LNCap cell cycle assay. The class given is cell-based. Conditions: positive control (FIG. 7). The protocol: A anti-cancer activity assay was conducted with the results presented in Table 3 wherein the herb formula represents a combination according to the present invention. LNCap is an androgen-dependent prostate cancer cell line.

A further experiment relates to HL60 cell lines. Briefly: HL60 cell cycle assay. In kind it is cell-based, human. Conditions: HL60, positive control (FIG. 10). On the procedure:
The bioactivity of the herb formula was assessed using HL60 cell lines. HL60 is a human promyelocytic leukemia cell line.

For experiment [2], the system named is Prostaglandin E2 (PGE2) production in a mouse 3T3 fibroblast cell line. Briefly: Anti-inflammatory assay: secreted PGE2 from stimulated 3T3 fibroblasts. The class given is cell-based. To be noted: 3T3 cells, 500 μM, dilution 500. The source says:
This assay was run to determine the effectiveness of the herbal formula to inhibit Prostaglandin E2 (PGE2) production in a mouse 3T3 fibroblast cell line.
The anti-inflammatory assay measures the level of PGE2 in stimulated mouse fibroblast 3T3 cell line after treatment with the herbal formula. The use of a stimulated cell line rather than using isolated enzyme systems gives more useful data.
PGE2 is formed in a variety of cells from PGH2, which itself is synthesized from arachiodonic acid by the enzyme prostaglandin synthetase. The assay measures secreted levels of PGE2 from the supernatant of the fibroblast cells.

In the case of `CC(O)(CS(=O)(=O)c1ccc(F)cc1)C(=O)Nc1ccc(C#N)c(C(F)(F)F)c1` (centres unmarked) [Casodex], in the experiment on serum PSA, the “serum PSA” value amounted to 5.7.
In the case of `O=c1c(-c2ccc(O)cc2)coc2cc(O)ccc12` [diadzein], the “displacement of 3H E2 from the E2 receptor” value in experiment [1] is reported as over 60%.
With `CC(=O)O[C@H]1C(=O)[C@@]2(C)[C@H]([C@H](OC(=O)c3ccccc3)[C@]3(O)C[C@H](OC(=O)[C@H](O)[C@@H](NC(=O)c4ccccc4)c4ccccc4)C(C)=C1C3(C)C)[C@]1(OC(C)=O)CO[C@@H]1C[C@@H]2O` [Paclitaxol], in the experiment with PC-3 cell lines, the “cells in the G0-G1 phase” value worked out at 1.16%, the “cells in the G2-M phase” value was 71.89% and the “cells in the S phase” value is 26.95%. Besides, the “effect on the cell cycle” value with LNCap cell lines is reported as “arresting of cells in G2-M”. Also, the “effect on the cell cycle” value in the experiment on HL60 cell lines is reported as “arrest the cells in the G2-M stage”.
Take `CC(=O)Oc1ccccc1C(=O)O` [Aspirin]: the “% Control (secreted PGE2)” value in experiment [2] is given as 14.2%.
